Measurements as given in patent USRE39707E1, “Camptothecin derivatives” (Catholic Healthcare West, priority 2001, dated 2007).

Tests used:
VM46 = experiment: Cell colony formation assay, VM46 cells; assay type: cell-based; details: 72 hours drug exposure
Procedure: (§1) This example provides directions for growing cells and testing compounds of the invention for their effect on the growth of the cells. All cells were purchased from DCIDC Tumor Repository, NCI, NIH.
(§2) Four hundred cells (HCT 116, PC-3, NCI/ADR-RES: human breast cancer cells) or five hundred cells (VM46) were plated in 60 mm Petri dishes containing 2.7 ml of medium (modified McCoy's 5a medium) containing 10% fetal bovine serum and 100 units/ml penicillin and 100 mg/ml streptomycin. The cells were incubated in a CO2 incubator at 37° C. for 5 hours for attachment to the bottom of Petri dishes. Drugs were made fresh in medium at ten times the final concentration, and then 0.3 ml of this stock solution was added to the 2.7 ml of medium in the dish. The cells were then incubated with drugs for 72 hours at 37° C. At the end of the incubation the drug-containing media were decanted, the dishes were rinsed with 4 ml of Hank's Balance Salt Solution (HBSS), 5 ml of fresh medium was added, and the dishes were returned to the incubator for colony formation. The cell colonies were counted using colony counter after incubation for 7 days for HCT116 cells and PC-3 cells and 8 days for VM46 cells, respectively.
(§3) Values of ID50 (the drug concentration producing 50% inhibition of colony formation) may be determined for each tested compound. The directions described in this example may be used in other cells, such as DU-145.

PC-3 = experiment: Cell colony formation assay, PC-3 cells; assay type: cell-based, human; details: 72 hours drug exposure
Procedure: as §1, §2, §3

HCT116 = experiment: Cell colony formation assay, HCT116 cells; assay type: cell-based, human; details: 72 hours drug exposure
Procedure: as §1
as §2, with “The” for “Four hundred cells (HCT 116, PC-3, NCI/ADR-RES: human breast cancer cells) or five hundred cells (VM46) were plated in 60 mm Petri dishes containing 2.7 ml of medium (modified McCoy's 5a medium) containing 10% fetal bovine serum and 100 units/ml penicillin and 100 mg/ml streptomycin. The”

C3H/HeJ mice = details: maximum tolerated dose at day 40, C3H/HeJ mice
Procedure: This example provides directions for performing in vivo toxicity tests of the compounds of the invention on C3H/HeJ mice.
Acute toxicities of the compounds of this invention are evaluated on C3H/HeJ mice (body weight 18-22 g). The MTD40 (maximum tolerated dose at day 40) values were determined by the standard procedure described by Gad and Chengelis (see, for example, “Acute Toxicology Testing,” 2nd Ed., Shayne O. Gad and Christopher P. Chengelis, pp. 186-195 (Academic Press)). In the consecutive type studies, 2 mice were dosed at low and moderate doses of 40 and 100 mg/kg. If no severe and irreversible toxicity (euthanasia is required) occurs at these doses, a new pair of animals was initiated at 180 mg/kg, which is 1.8 times higher than 100 mg/kg. Sequential dosages (about 3 doses on 3 pairs of animals, i.e. 2 mice for each drug dose) were increased by a factor of 1.8 until severe and irreversible toxicity (euthanasia is required) occurred. Then another pair of animals was initiated at the highest nonlethal dosage, and successive dosages were increased by a factor of 1.15. The result of this exercise was two dosages, one apparently nonlethal and the other lethal if severe and irreversible toxicity occurs and euthanasia is required, separated by a factor of 1.15. Six mice were dosed at each dosage. If no severe and irreversible toxicity occurred at the lower dosage and at least one with severe and irreversible toxicity occurred at the higher dose, then the lower dose was considered to be the MTD. The compounds of this invention were administered to C3H/HeJ mice by intraperitoneal injection. Drug toxicity was evaluated on mice checked daily for 45 days.

[1] = test system: MTG-B mouse mammary Adenocarcinoma; experiment: In vivo efficacy in C3H/HeJ mice bearing MTG-B tumors; details: for T (Surviving days after treatment of MTG-B mouse mammary Adenocarcinoma In C3H/Hej mice): i.p., control mice survived 6 days; for CD/Taxol: ratio of extra days of survival with compound to extra days of survival with taxol, each compared to control; for T/C %: surviving days treated / surviving days control x 100%, control 6 days
Procedure: This example provides directions for performing in vivo efficacy tests of the compounds of the invention on C3H/HeJ mice bearing MTG-B tumors.
Studies on the compounds of this invention were performed on C3H/HeJ mice bearing […] tumors. […] Treatment was initiated at that time, with the first day of treatment designated as day 0 for calculation and plots. The mice were injected i.p. with thee drug dose levels (⅓, ½, 1×MTD) using both a single injection and the schedule of Q2D×3 (every 2 days for a total of 3 treatments at ⅓ MTD). Control groups of mice bearing 8 mm diameter tumors were treated with vehicle alone. […] When a tumor reached 1.5 g, the mouse bearing the tumor was euthanized. Surviving days measured from day 0 for mice treated with anticancer drugs (T) and surviving days measured from day 0 for control mice (C) were recorded. Tumor growth inhibition values (T/C %) were calculated using the formula T/C %=(surviving days of mice treated with an anticancer drug T/surviving days of control mice C)×100%, as shown in Table II.
The final right-hand column in Table II provides a ratio of the extra days of survival of mice treated with the compounds of the invention (compared to control) to the extra days of survival of mice treated with taxol (compared to control).

| SMILES | In vitro efficacy: Survival (%) of cells line VM46 (VM46; 1 nM) [%] | In vitro efficacy: Survival (%) of cells line VM46 (VM46; 10 nM) [%] | In vitro efficacy: Survival (%) of cells line PC-3 (PC-3; 1 nM) [%] | In vitro efficacy: Survival (%) of cells line PC-3 (PC-3; 5 nM) [%] | In Vitro Efficacy: Survival (%) of HCT116 (HCT116; 1 nM) [%] | In Vitro Efficacy: Survival (%) of HCT116 (HCT116; 10 nM) [%] | In Vitro Efficacy: Survival (%) of HCT116 (HCT116; 100 nM) [%] | In Vivo Toxicity MTD40 (ip, mg/kg) in C3H/Hej Mice (C3H/HeJ mice) [mg/kg] | T (Surviving days after treatment of MTG-B mouse mammary Adenocarcinoma In C3H/Hej mice) [1] [days] | CD/Taxol [1] | T/C % [1] [%] |
| --- | --- | --- | --- | --- | --- | --- | --- | --- | --- | --- | --- |
| CCC1(OC(=O)COc2ccccc2[N+](=O)[O-])C(=O)OCc2c1cc1n(c2=O)Cc2cc3ccccc3nc2-1 (centres unmarked) [Example 000411, Camptothecin-20-O-ester of 2-nitrophenoxyacetic acid] | 76.87 | 0 | 90.09 | 33.09 | 95.13 | 0 | 0 | >150 | 8 | .7 | 133 |
| CCC1(OC(=O)COc2ccc(Cl)cc2C)C(=O)OCc2c1cc1n(c2=O)Cc2cc3ccccc3nc2-1 (centres unmarked) [Example 000127, Camptothecin-20-O-ester of 4-chloro-2-methylphenoxyacetic acid] | 47.33 | 0 | 88.97 | 31.46 | 86.48 | 0 | 0 | >150 | 13 | 2.3 | 217 |
| CCC1(OC(=O)COc2cccc(Cl)c2Cl)C(=O)OCc2c1cc1n(c2=O)Cc2cc3ccccc3nc2-1 (centres unmarked) [Example 000412, Camptothecin-20-O-ester of 2,3-dichlorophenoxyacetic acid] | 50.72 | 0 | 83.00 | 8.68 | 81.36 | 0 | 0 | 100 | 17 | 3.7 | 283 |
| CCC1(OC(=O)COc2ccc(I)cc2)C(=O)OCc2c1cc1n(c2=O)Cc2cc3ccccc3nc2-1 (centres unmarked) [Example 000413, Camptothecin-20-Oester of 4-iodophenoxyacetic acid] | 73.61 | 0 | 89.51 | 33.64 | 87.62 | 0 | 0 | >150 | 18 | 4 | 300 |
